Results: patent publication US9067934B2, “Bicyclic pyridinones” (Pfizer Inc., priority 2011, dated 2015)
Structures can show the parent of a compound that is named as a salt.

Tested on: production of amyloid beta protein Aβ(1-42) (γ-secretase) in human WT-APP overexpressing CHO cells
Experiment: Cell-Based γ-Secretase Assay with ELISA Readout
Conditions: human WT-APP overexpressing CHO cells, ~24 hours at 37° C., Aβ(1-42) ELISA; footnotes: a = geometric mean of >15 determinations, b = single determination, c = geometric mean of 7-15 determinations; read-out: Aβ 42B IC50 (Geometric Mean of 2-6 Determinations)
Method in brief: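 Human WT-APP-overexpressing CHO cells were pre-cultured 24 h at 37° C, then exposed to compounds (eleven-point half-log series, 1% final DMSO) for ~24 h. Aβ(1-42) in conditioned media was captured with Aβ(1-42)-specific antibody and detected with Eu-labeled 6e10 by DELFIA TRF. IC50 by nonlinear regression against min/max inhibition controls.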

Cc1cn(-c2ccc3n(c2=O)CCN(CCOc2cc(C(F)(F)F)nc4c(Cl)ccc(F)c24)C3=O)cn1 [Example 66, 2-(2-{[8-chloro-5-fluoro-2-(trifluoromethyl)quinolin-4-yl]oxy}ethyl)-7-(4-methyl-1H-imidazol-1-yl)-3,4-dihydro-2H-pyrido[1,2-a]pyrazine-1,6-dione]
IC50: 52.4 nM

Cc1cn(-c2ccc3n(c2=O)CCN(CCOc2ccc(F)c(Cl)c2C(F)(F)F)C3=O)cn1 [Example 67, 2-{2-[3-chloro-4-fluoro-2-(trifluoromethyl)phenoxy]ethyl}-7-(4-methyl-1H-imidazol-1-yl)-3,4-dihydro-2H-pyrido[1,2-a]pyrazine-1,6-dione]
IC50: 58.4 nM

Cc1cn(-c2ccc3n(c2=O)CCN(CCOc2ncc(Cl)c4ccccc24)C3=O)cn1 [Example 68, 2-{2-[(4-chloroisoquinolin-1-yl)oxy]ethyl}-7-(4-methyl-1H-imidazol-1-yl)-3,4-dihydro-2H-pyrido[1,2-a]pyrazine-1,6-dione, trifluoroacetate salt]
IC50: 59.4 nM

Cc1cn(-c2ccc3n(c2=O)CCN(CCOc2ccnc4ccc(C(F)(F)F)cc24)C3=O)cn1 [Example 69, 7-(4-methyl-1H-imidazol-1-yl)-2-(2-{[6-(trtfluoromethyl)quinolin-4-yl]oxy}ethyl)-3,4-dihydro-2H-pyrido[1,2-a]pyrazine-1,6-dione]
IC50: 58.3 nM

C#CCCCOc1ccc(C(=O)c2cccc(OCCN3CCn4c(ccc(-n5cnc(C)c5)c4=O)C3=O)c2)cc1 [Example 70, 7-(4-methyl-1H-imidazol-1-yl)-2-(2-{3-[4-(pent-4-yn-1-yloxy)benzoyl]phenoxy}ethyl)-3,4-dihydro-2H-pyrido[1,2-a]pyrazine-1,6-dione]
IC50: 135 nM

Cc1cn(-c2ccc3n(c2=O)CCN(CCOc2cccc4c2c2ccccc2n4C)C3=O)cn1 [Example 71, 2-{2-[(9-methyl-9H-carbazol-4-yl)oxy]ethyl}-7-(4-methyl-1H-imidazol-1-yl)-3,4-dihydro-2H-pyrido[1,2-a]pyrazine-1,6-dione, trifluoroacetate salt]
IC50: 4.22 nM

Cc1cn(-c2ccc3n(c2=O)CCN(CCOc2ccccc2-c2cc(C(F)(F)F)no2)C3=O)cn1 [Example 72, 7-(4-methyl-1H-imidazol-1-yl)-2-(2-{2-[3-(trifluoromethyl)isoxazol-5-yl]phenoxy}ethyl)-3,4-dihydro-2H-pyrido[1,2-a]pyrazine-1,6-dione]
IC50: 14.8 nM

Cc1cn(-c2ccc3n(c2=O)CCN(CCOc2ccc(F)c4nc(C(F)(F)F)sc24)C3=O)cn1 [Example 73, 2-(2-{[4-fluoro-2-(trifluoromethyl)-1,3-benzothiazol-7-yl]oxy}ethyl)-7-(4-methyl-1H-imidazol-1-yl)-3,4-dihydro-2H-pyrido[1,2-a]pyrazine-1,6-dione]
IC50: 43.7 nM

Cc1cn(-c2ccc3n(c2=O)CCN(CCOc2nccc4oc5ccccc5c24)C3=O)cn1 [Example 74, 2-[2-([1]benzofuro[3,2-c]pyridin-1-yloxy)ethyl]-7-(4-methyl-1H-imidazol-1-yl)-3,4-dihydro-2H-pyrido[1,2-a]pyrazine-1,6-dione]
IC50: 38.5 nM

Cc1cn(-c2ccc3n(c2=O)CCN(CCOc2ncc(F)cc2-c2csc(C(F)(F)F)n2)C3=O)cn1 [Example 75, 2-[2-({5-fluoro-3-[2-(trifluoromethyl)-1,3-thiazol-4-yl]pyridin-2-yl}oxy)ethyl]-7-(4-methyl-1H-imidazol-1-yl)-3,4-dihydro-2H-pyrido[1,2-a]pyrazine-1,6-dione]
IC50: 62.3 nM

Cc1cn(-c2ccc3n(c2=O)CCN(CCOc2ccc(F)cc2C2CC(F)(F)C2)C3=O)cn1 [Example 76, 2-{2-[2-(3,3-difluorocyclobutyl)-4-fluorophenoxy]ethyl}-7-(4-methyl-1H-imidazol-1-yl)-3,4-dihydro-2H-pyrido[1,2-a]pyrazine-1,6-dione]
IC50: 58.6 nM

Cc1cn(-c2ccc3n(c2=O)CCN(CCOc2nsc4ccc(Cl)cc24)C3=O)cn1 [Example 77, 2-{2-[(5-chloro-1,2-benzisothiazol-3-yl)oxy]ethyl}-7-(4-methyl-1H-imidazol-1-yl)-3,4-dihydro-2H-pyrido[1,2-a]pyrazine-1,6-dione]
IC50: 66.2 nM

COc1ccc2c(OCCN3CCn4c(ccc(-n5cnc(C)c5)c4=O)C3=O)cccc2c1 [Example 78, 2-{2-[(6-methoxy-1-naphthyl)oxy]ethyl}-7-(4-methyl-1H-imidazol-1-yl)-3,4-dihydro-2H-pyrido[1,2-a]pyrazine-1,6-dione]
IC50: 87.5 nM

Cc1cn(-c2ccc3n(c2=O)CCN(CCOc2cccc4sc5ccccc5c24)C3=O)cn1 [Example 79, 2-[2-(dibenzo[b,d]thien-1-yloxy)ethyl]-7-(4-methyl-1H-imidazol-1-yl)-3,4-dihydro-2H-pyrido[1,2-a]pyrazine-1,6-dione]
IC50: 7.23 nM

Cc1cn(-c2ccc3n(c2=O)CCN(CCOc2ccc(F)c4sc(C(F)(F)F)nc24)C3=O)cn1 [Example 80, 2-(2-{[7-fluoro-2-(trifluoromethyl)-1,3-benzothiazol-4-yl]oxy}ethyl)-7-(4-methyl-1H-imidazol-1-yl)-3,4-dihydro-2H-pyrido[1,2-a]pyrazine-1,6-dione]
IC50: 152 nM

Cc1cn(-c2ccc3n(c2=O)CCN(CCOc2cccc(-n4ccc(C(F)(F)F)n4)c2)C3=O)cn1 [Example 81, 7-(4-methyl-1H-imidazol-1-yl)-2-(2-{3-[3-(trifluoromethyl)-1H-pyrazol-1-yl]phenoxy}ethyl)-3,4-dihydro-2H-pyrido[1,2-a]pyrazine-1,6-dione, trifluoroacetate salt]
IC50: 384 nM

Cc1cn(-c2ccc3n(c2=O)CCN(CCOc2noc4ccc(Cl)cc24)C3=O)cn1 [Example 82, 2-{2-[(5-chloro-1,2-benzisoxazol-3-yl)oxy]ethyl}-7-(4-methyl-1H-imidazol-1-yl)-3,4-dihydro-2H-pyrido[1,2-a]pyrazine-1,6-dione]
IC50: 209 nM

Cc1cn(-c2ccc3n(c2=O)CCN(CCOc2cccc4ccc(F)cc24)C3=O)cn1 [Example 83, 2-{2-[(7-fluoronaphthalen-1-yl)oxy]ethyl}-7-(4-methyl-1H-imidazol-1-yl)-3,4-dihydro-2H-pyrido[1,2-a]pyrazine-1,6-dione]
IC50: 12.3 nM

Cc1cn(-c2ccc3n(c2=O)CCN(CCOc2cc(C(F)(F)F)nc4cc(Cl)ccc24)C3=O)cn1 [Example 84, 2-(2-{[7-chloro-2-(trrfluoromethyl)quinolin-4-yl]oxy}ethyl)-7-(4-methyl-1H-imidazol-1-yl)-3,4-dihydro-2H-pyrido[1,2-a]pyrazine-1,6-dione]
IC50: 71.5 nM

Cc1cn(-c2ccc3n(c2=O)CCN(CCOc2ccc(F)cc2-n2ccc(C(F)(F)F)n2)C3=O)cn1 [Example 85, 2-(2-{4-fluoro-2-[3-(trifluoromethyl)-1H-pyrazol-1-yl]phenoxy}ethyl)-7-(4-methyl-1H-imidazol-1-yl)-3,4-dihydro-2H-pyrido[1,2-a]pyrazine-1,6-dione]
IC50: 106 nM

Cc1cn(-c2ccc3n(c2=O)CCN(CCOc2cnc(C(F)(F)F)c4ccccc24)C3=O)cn1 [Example 86, 7-(4-methyl-1H-imidazol-1-yl)-2-(2-{[1-(trifluoromethyl)isoquinolin-4-yl]oxy}ethyl)-3,4-dihydro-2H-pyrido[1,2-a]pyrazine-1,6-dione, trifluoroacetate salt]
IC50: 107 nM

Cc1cn(-c2ccc3n(c2=O)CCN(CCOc2ccc(F)c4oc5ccccc5c24)C3=O)cn1 [Example 87, 2-{2-[(4-fluorodibenzo[b,d]furan-1-yl)oxy]ethyl}-7-(4-methyl-1H-imidazol-1-yl)-3,4-dihydro-2H-pyrido[1,2-a]pyrazine-1,6-dione]
IC50: 22.8 nM

Cc1cn(-c2ccc3n(c2=O)CCN(CCOc2ccccc2-c2cccc(F)c2)C3=O)cn1 [Example 88, 2-{2-[(3′-fluorobiphenyl-2-yl)oxy]ethyl}-7-(4-methyl-1H-imidazol-1-yl)-3,4-dihydro-2H-pyrido[1,2-a]pyrazine-1,6-dione, formate salt]
IC50: 75.4 nM

Cc1cn(-c2ccc3n(c2=O)CCN(CCOc2ccccc2-c2ccc(F)cc2)C3=O)cn1 [Example 89, 2-{2-[(4′-fluorobiphenyl-2-yl)oxy]ethyl}-7-(4-methyl-1H-imidazol-1-yl)-3,4-dihydro-2H-pyrido[1,2-a]pyrazine-1,6-dione, formate salt]
IC50: 101 nM

Cc1cn(-c2ccc3n(c2=O)CCN(CCOc2ccccc2-c2ccc(C#N)cc2)C3=O)cn1 [Example 90, 2′-{2-[7-(4-methyl-1H-imidazol-1-yl)-1,6-dioxo-1,3,4,6-tetrahydro-2H-pyrido[1,2-a]pyrazin-2-yl]ethoxy}biphenyl-4-carbonitrile, formate salt]
IC50: 147 nM

Cc1cn(-c2ccc3n(c2=O)CCN(CCOc2ccccc2-c2ccc4c(c2)OCO4)C3=O)cn1 [Example 91, 2-{2-[2-(1,3-benzodioxol-5-yl)phenoxy]ethyl}-7-(4-methyl-1H-imidazol-1-yl)-3,4-dihydro-2H-pyrido[1,2-a]pyrazine-1,6-dione, formate salt]
IC50: 120 nM

Cc1cn(-c2ccc3n(c2=O)CCN(CCOc2ccccc2-c2cc4ccccc4o2)C3=O)cn1 [Example 92, 2-{2-[2-(1-benzofuran-2-yl)phenoxy]ethyl}-7-(4-methyl-1H-imidazol-1-yl)-3,4-dihydro-2H-pyrido[1,2-a]pyrazine-1,6-dione, formate salt]
IC50: 4.87 nM

Cc1ccc(-c2ccccc2OCCN2CCn3c(ccc(-n4cnc(C)c4)c3=O)C2=O)cc1 [Example 93, 2-{2-[(4′-methylbiphenyl-2-yl)oxy]ethyl}-7-(4-methyl-1H-imidazol-1-yl)-3,4-dihydro-2H-pyrido[1,2-a]pyrazine-1,6-dione, formate salt]
IC50: 75.8 nM

Cc1cn(-c2ccc3n(c2=O)CCN(CCOc2ccccc2-c2ccc(Cl)cc2)C3=O)cn1 [Example 94, 2-{2-[(4′-chlorobiphenyl-2-yl)oxy]ethyl}-7-(4-methyl-1H-imidazol-1-yl)-3,4-dihydro-2H-pyrido[1,2-a]pyrazine-1,6-dione, formate salt]
IC50: 108 nM
